Reference: US7816350B2, “Substituted [1,2,3] triazolo[4,5-D]pyrimidines as cdk inhibitors” (Institute of Experimental Botany ASCR, priority 2002, dated 2010)
Where “and” joins values, the source holds several entries; their conditions need not be identical. Equal entries are not always repeated.

Columns and labels:
IκB-α kinase = IκB-α kinase inhibitory activity, in vitro kinase assay; assay type: biochemical
MCF7 = assay: In vitro cytotoxic activity, MTT assay, MCF7; assay type: cell-based; conditions: Homo sapiens, 72 hours
Excerpt: One of the parameters used, as the basis for colorimetric assays is the metabolic activity of viable cells. For example, a microtiter assay, which uses the tetrazolium salt MTT, is now widely used to quantitate cell proliferation and cytotoxicity. For instance, this assay is used in drug screening programs and in chemosensitivity testing. Because only metabolically active cells cleave tetrazolium salts, these assays detect viable cells exclusively. In the case of MTT assay, yellow soluble tetrazolium salt is reduced to coloured water-insoluble formazan salt. After it is solubilized, the formazan formed can easily and rapidly be quantified in a conventional ELISA plate reader at 570 nm (maximum absorbance). The quantity of reduced formazan corresponds to number of vital cells in the culture.
Human T-lymphoblastic leukemia cell line CEM; promyelocytic HL-60 and monocytic U937 leukemias; breast carcinoma cell lines MCF-7, BT549, MDA-MB-231; glioblastoma U87MG cells; cervical carcinoma cells HELA; sarcoma cells U2OS and Saos2; hepatocellular carcinoma HepG2; mouse immortalized bone marrow macrophages B2.4 and B10A.4; P388D1 and L1210 leukemia; B16 and B16F10 melanomas were used for routine screening of compounds. The cells were maintained in Nunc/Corning 80 cm^2 plastic tissue culture flasks and cultured in cell culture medium (DMEM with 5 g/l glucose, 2 mM glutamine, 100 U/ml penicillin, 100 μg/ml streptomycin, 10% fetal calf serum and sodium bicarbonate).
The cell suspensions that were prepared and diluted according to the particular cell type and the expected target cell density (2.500-30.000 cells per well based on cell growth characteristics) were added by pipette (80 μl) into 96/well microtiter plates. Inoculates were allowed a pre-incubation period of 24 hours at 37° C. and 5% CO2 for stabilisation. Four-fold dilutions of the intended test concentration were added at time zero in 20 μl aliquots to the microtiter plate wells. Usually, test compound was evaluated at six 4-fold dilutions. In routine testing, the highest well concentration was 266.7 μM, but it can be the matter of change dependent on the agent. All drug concentrations were examined in duplicates. Incubations of cells with the test compounds lasted for 72 hours at 37° C., in 5% CO2 atmosphere and 100% humidity. At the end of incubation period, the cells were assayed by using the MTT. Ten microliters of the MTT stock solution were pipetted into each well and incubated further for 1-4 hours. After this incubation period, formazan was solubilized by addition of 100 μl/well of 10% SDS in water (pH=5.5) followed by further incubation at 37° C. overnight. The optical density (OD) was measured at 540 nm with the Labsystem iEMS Reader MF (UK). The tumour cell survival (TCS) was calculated using the following equation: TCS=(ODdrug exposed well/mean ODcontrol wells)×100%. The IC50 value, the drug concentration lethal to 50% of the tumour cells, was calculated from the obtained dose response curves (FIG. 2).

K-562 = assay: In vitro cytotoxic activity, MTT assay, K-562; assay type: cell-based; conditions: Homo sapiens, K562, 72 hours
p34^cdc2/cyclin B (CDC2) = target: T1, p34^cdc2/cyclin B (CDC2) (Homo sapiens, UniProt P06493); assay: CDK inhibition assay, p34cdc2/cyclin B kinase, histone H1 phosphorylation; assay type: biochemical
T1 construct: made in house; host or cells: Sf9 insect cells (baculovirus co-infection)
T1 sequence (P06493 whole entry, species assumed): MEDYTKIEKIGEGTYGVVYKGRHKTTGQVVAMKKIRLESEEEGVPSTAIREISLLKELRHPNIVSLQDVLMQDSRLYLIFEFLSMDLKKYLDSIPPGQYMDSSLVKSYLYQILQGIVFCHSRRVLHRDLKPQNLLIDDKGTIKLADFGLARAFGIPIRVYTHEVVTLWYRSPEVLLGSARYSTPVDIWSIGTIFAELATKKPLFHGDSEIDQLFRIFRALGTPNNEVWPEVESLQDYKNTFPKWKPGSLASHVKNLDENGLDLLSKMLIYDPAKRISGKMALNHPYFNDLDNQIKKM
T1 sequence (P14635 whole entry partner, species assumed): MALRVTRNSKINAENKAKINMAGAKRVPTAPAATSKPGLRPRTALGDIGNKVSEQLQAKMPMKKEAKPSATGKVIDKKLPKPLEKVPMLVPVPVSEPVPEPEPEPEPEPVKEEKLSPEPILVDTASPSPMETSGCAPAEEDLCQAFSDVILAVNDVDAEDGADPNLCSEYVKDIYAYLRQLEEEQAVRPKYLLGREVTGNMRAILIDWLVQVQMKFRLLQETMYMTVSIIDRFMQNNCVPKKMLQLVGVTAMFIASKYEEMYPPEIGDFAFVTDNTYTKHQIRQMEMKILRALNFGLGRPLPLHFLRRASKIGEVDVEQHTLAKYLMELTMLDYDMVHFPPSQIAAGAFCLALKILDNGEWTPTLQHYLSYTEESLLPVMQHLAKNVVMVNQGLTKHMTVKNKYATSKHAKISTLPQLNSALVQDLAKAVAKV
Method: (§1) Cyclin-dependent kinases (p34^cdc2, p33^cdk2) and cyclins (cyclin B, E) are produced in Sf9 insect cells coinfected with appropriate baculoviral constructs. The cells are harvested 68-72 hrs post infection in lysis buffer for 30 min on ice and the soluble fraction is recovered by centrifugation at 14.000 g for 10 min. The protein extract is stored at −80° C.
(§2) Lysis buffer: 50 mM Tris pH 7.4, 150 mM NaCl, 5 mM EDTA, 20 mM NaF, 1% Tween, 1 mM DTT, 0.1 mM PMSF, leupeptine, aprotonine.
(§3) To carry out experiments on kinetics under linear conditions, the final point test system for kinase activity measurement is used. The kinase is added to reaction mixture in such a way as to obtain linear activity with respect to the concentration of enzyme and with respect to time.
(§4) The p34^cdc2 and p33^cdk2 kinase inhibition determination involves the use of 1 mg/ml histone H1 (Sigma, type III-S) in the presence of 15 μM [γ-^32P]ATP ([…]) (Amersham) in a final volume of 20 μl. Kinase activity is determined at 30° C. in the kinase buffer.
(§5) Tested compounds are usually dissolved to 100 mM solutions in DMSO, final concentration of DMSO in reaction mixture never exceeds 1%. The controls contain suitable dilutions of DMSO.
(§6) After 10 min, addition 3×SDS sample buffer stops the incubations. Phosphorylated proteins are separated electrophoretically using 12.5% SDS polyacrylamide gel. The measurement of kinase activity is done using digital image analysis.
(§7) The kinase activity is expressed as a percentage of maximum activity, the apparent inhibition constants are determined by graphic analysis (FIG. 1).
(§8) Kinase buffer: 50 mM Hepes pH 7.4, 10 mM MgCl2, 5 mM EGTA, 10 mM 2-glycerolphosphate, 1 mM NaF, 1 mM DTT

p33^cdk2 (cyclin E) = target: T2, p33^cdk2 (cyclin E) (Homo sapiens, UniProt P24941); assay: CDK inhibition assay, p33cdk2 kinase, histone H1 phosphorylation; assay type: biochemical
T2 construct: made in house; host or cells: Sf9 insect cells (baculovirus co-infection)
Method: as §1, §2, §3, §4, §5, §6, §7, §8

CDK9 - cyclin T1 = CDK9 - cyclin T1 (Homo sapiens, UniProt P50750); assay: CDK inhibitory activity, CDK9 - cyclin T1; assay type: biochemical
Chain of CDK9 - cyclin T1 (P50750 whole entry): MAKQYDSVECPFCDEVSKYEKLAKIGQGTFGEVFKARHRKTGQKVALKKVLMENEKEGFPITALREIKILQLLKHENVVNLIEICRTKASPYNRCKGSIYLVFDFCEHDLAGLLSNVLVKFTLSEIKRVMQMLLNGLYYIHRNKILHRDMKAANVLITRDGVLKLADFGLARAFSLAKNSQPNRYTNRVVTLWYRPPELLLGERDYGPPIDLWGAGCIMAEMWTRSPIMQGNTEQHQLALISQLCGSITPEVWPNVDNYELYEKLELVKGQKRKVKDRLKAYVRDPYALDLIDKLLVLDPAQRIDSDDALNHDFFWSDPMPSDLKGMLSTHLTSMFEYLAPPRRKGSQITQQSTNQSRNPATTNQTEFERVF
Chain of CDK9 - cyclin T1 (O60563 whole entry partner): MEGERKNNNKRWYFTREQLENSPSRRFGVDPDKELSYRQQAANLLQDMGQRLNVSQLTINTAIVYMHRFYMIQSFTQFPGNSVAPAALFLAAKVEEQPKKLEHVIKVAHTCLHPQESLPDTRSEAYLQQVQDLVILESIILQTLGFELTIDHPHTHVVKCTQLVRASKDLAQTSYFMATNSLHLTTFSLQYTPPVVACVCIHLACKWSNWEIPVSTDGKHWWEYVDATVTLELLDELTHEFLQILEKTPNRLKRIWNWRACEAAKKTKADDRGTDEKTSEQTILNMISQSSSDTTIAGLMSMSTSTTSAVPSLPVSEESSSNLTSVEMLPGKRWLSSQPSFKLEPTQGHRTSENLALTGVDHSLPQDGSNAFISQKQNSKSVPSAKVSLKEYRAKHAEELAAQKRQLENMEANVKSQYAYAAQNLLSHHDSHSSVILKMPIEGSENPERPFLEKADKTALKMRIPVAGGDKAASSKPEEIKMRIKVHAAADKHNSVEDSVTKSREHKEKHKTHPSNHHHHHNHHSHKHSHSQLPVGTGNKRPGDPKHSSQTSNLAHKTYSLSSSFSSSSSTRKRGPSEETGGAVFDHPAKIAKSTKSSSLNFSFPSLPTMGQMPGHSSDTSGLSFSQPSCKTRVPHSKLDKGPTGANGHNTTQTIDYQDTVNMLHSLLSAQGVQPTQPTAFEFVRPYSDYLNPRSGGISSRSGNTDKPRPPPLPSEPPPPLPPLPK

SMILES	IC50 (IκB-α kinase)	IC50 (p34^cdc2/cyclin B (CDC2))	IC50 (p33^cdk2 (cyclin E))	IC50 (CDK9 - cyclin T1)	IC50 (MCF7)	IC50 (K-562)
CC(=O)c1cccc(CNc2nc(N[C@@H](CO)C(C)C)nc3c2nnn3C(C)C)c1	> 100 µM	40 µM	–	–	47.6 µM	50.6 µM
CC(C)n1nnc2c(NCc3ccccc3O)nc(NC3CCC(N)CC3)nc21 (centres unmarked)	–	–	27.7 µM	14.7 µM	–	–
CC(C)n1nnc2c(Nc3cccc(Cl)c3)nc(NCCCO)nc21	> 100 µM	–	–	–	> 100 µM	> 100 µM
CC(C)n1nnc2c(NCc3ccccc3O)nc(NC3CCC(O)CC3)nc21 (centres unmarked)	–	–	> 10 µM	9.9 µM	–	–
CC(C)[C@H](CO)Nc1nc(NCc2cccc(O)c2)c2nnn(C(C)C)c2n1	80 µM	8 µM	–	–	18 µM	17.5 µM
OC1CCC(Nc2nc(Nc3cccc(Cl)c3)c3nn[nH]c3n2)CC1 (centres unmarked)	–	–	0.1 µM	8 µM	–	–
CC(C)n1nnc2c(Nc3cccc(Cl)c3)nc(NCCCN)nc21	> 100 µM	> 100 µM	–	–	100 µM	> 100 µM
COc1cccc(CNc2nc(NCCO)nc3c2nnn3C)c1O	> 100 µM	43 µM	–	–	–	–
CC[C@H](CO)Nc1nc(Nc2ccc(Br)cc2)c2nnn(C(C)C)c2n1	90 µM	26 µM	–	–	–	–
CC[C@H](CO)Nc1nc(Nc2ccc(N)c(Cl)c2)c2nnn(C(C)C)c2n1	> 100 µM	50 µM	–	–	–	–

Further lines, with some results ahead:

IC50 (IκB-α kinase)	IC50 (p34^cdc2/cyclin B (CDC2))	IC50 (p33^cdk2 (cyclin E))	IC50 (CDK9 - cyclin T1)	SMILES	IC50 (MCF7)	IC50 (K-562)
> 100 µM	–	–	–	CC(C)n1nnc2c(Nc3cccc(Cl)c3)nc(NCCO)nc21	> 100 µM	> 100 µM
–	–	54.6 µM	29.2 µM	CC(C)n1nnc2c(NCc3ccccc3)nc(NCCCO)nc21	–	–
–	–	23.2 µM	11.5 µM	CC[C@H](CO)Nc1nc(NCc2ccccc2)c2nnn(C(C)C)c2n1	–	–
> 100 µM	7 µM	–	–	CC(C)n1nnc2c(Nc3cccc(Cl)c3)nc(NC3CCCCC3N)nc21 (centres unmarked)	8.9 µM	12.2 µM
> 100 µM	25 µM	–	–	CC(=O)c1ccccc1CNc1nc(N[C@@H](CO)C(C)C)nc2c1nnn2C(C)C	40.8 µM	34.9 µM
> 100 µM and 80 µM	35 µM	–	–	CC[C@H](CO)Nc1nc(Nc2cccc(Cl)c2)c2nnn(C(C)C)c2n1	> 100 µM	> 100 µM
> 100 µM	7 µM	–	–	CC(C)[C@H](CO)Nc1nc(NCc2ccccc2O)c2nnn(C(C)C)c2n1	24 µM	25 µM
> 100 µM	8 µM	–	–	CC(C)[C@H](CO)Nc1nc(NCc2cc(O)c(Cl)cc2O)c2nnn(C(C)C)c2n1	–	–
> 100 µM	70 µM	–	–	CC(=O)c1ccccc1CNc1nc(NCCO)nc2c1nnn2C	–	–
–	–	6.9 µM	2.5 µM	CC(C)C(CO)Nc1nc(NCc2ccccc2O)c2nnn(C(C)C)c2n1 (centres unmarked)	–	–
